Measured values reported in PubChem BioAssay (NCI).
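Dose response: 5 concentrations. Exposure: 48 h. Format: 96-well plates. Endpoint: linear interpolation; highest concentration if not reached. GI50 is the concentration that inhibits growth by half. Definition used: TGI = concentration required for complete inhibition of growth.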

Tests used:
Assay in all cases: NCI-60 cell line screen, 48 h
[1] = system: 786-0 renal
[2] = system: A498 renal
[3] = system: A549 NSCLC
[4] = system: ACHN renal
[5] = system: BT-549 breast
[6] = system: CAKI-1 renal
[7] = system: CCRF-CEM leukemia
[8] = system: COLO 205 colon
[9] = system: DU-145 prostate
[10] = system: EKVX NSCLC
[11] = system: HCC-2998 colon
[12] = system: HCT-116 colon
[13] = system: HCT-15 colon
[14] = system: HL-60(TB) leukemia
[15] = system: HOP-62 NSCLC
[16] = system: HS 578T breast
[17] = system: HT29 colon
[18] = system: IGROV1 ovarian
[19] = system: K-562 leukemia
[20] = system: KM12 colon
[21] = system: LOX IMVI melanoma
[22] = system: M14 melanoma
[23] = system: MALME-3M melanoma
[24] = system: MCF7 breast
[25] = system: MDA-MB-231 breast
[26] = system: MDA-MB-435
[27] = system: MOLT-4 leukemia
[28] = system: NCI-H226 lung
[29] = system: NCI-H23 lung

## NC(N)=N/N=C(\N=Nc1ccccc1)c1ccc(Cl)cc1
[1]
  GI50: 2.03 µM
  TGI: 8.36 µM
[2]
  GI50: 9.53 µM
  TGI: 22.2 µM
[3]
  GI50: 4.25 µM
  TGI: 18.5 µM
[4]
  GI50: 2.51 µM
  TGI: 8.06 µM
[5]
  GI50: 4.86 µM
  TGI: 19.2 µM
[6]
  GI50: 1.42 µM
  TGI: 3.29 µM
[7]
  GI50: 1.76 µM
  TGI: 5.78 µM
[8]
  GI50: 2.46 µM
  TGI: 5.36 µM
[9]
  GI50: 7.38 µM
  TGI: 21.3 µM
[10]
  GI50: 2.55 µM
  TGI: 13.5 µM
[11]
  GI50: 2.14 µM
  TGI: 4.68 µM
[12]
  GI50: 1.7 µM
  TGI: 3.6 µM
[13]
  GI50: 3.02 µM
  TGI: 14.9 µM
[14]
  GI50: 1.88 µM
  TGI: 3.85 µM
[15]
  GI50: 5.1 µM
  TGI: 18.8 µM
[16]
  GI50: 4.79 µM
  TGI: 46.6 µM
[17]
  GI50: 2.29 µM
  TGI: 5.39 µM
[18]
  GI50: 7.32 µM
  TGI: 23 µM
[19]
  GI50: 1.2 µM
  TGI: 6.37 µM
[20]
  GI50: 2.15 µM
  TGI: 7.76 µM
[21]
  GI50: 1.18 µM
  TGI: 3.54 µM
[22]
  GI50: 1.51 µM
  TGI: 4.39 µM
[23]
  GI50: 4.68 µM
  TGI: 17.2 µM
[24]
  GI50: 2.43 µM
  TGI: 14.2 µM
[25]
  GI50: 1.9 µM
  TGI: 12.7 µM
[26]
  GI50: 1.7 µM
  TGI: 4.36 µM
[27]
  GI50: 2.35 µM
  TGI: 6.16 µM
[28]
  GI50: 3.66 µM
  TGI: 18.8 µM
[29]
  GI50: 14.4 µM
